# Measurements taken from patent US20070092551A1, “Therapeutic agent” (TAKARA BIO INC., priority 2003, published 2007).
# Columns and labels:
# [1] = system: type II diabetes model mouse; experiment: Glucose tolerance test, 4-hydroxyderricin and combined use with xanthoangelol; format: in vivo; conditions: male KK-Ay mice
# Experimental: Amelioration effects for glucose tolerance by 4-hydroxyderricin and combined use of 4-hydroxyderricin and xanthoangelol were examined using a type II diabetes model mouse. Experiments were carried out with five male 12-week old KK-Ay mice (CLEA Japan, Inc.) per group. 4-Hydroxyderricin which was previously suspended or dissolved in an olive oil so as to have a concentration of 4% (w/v) was forcibly orally administered to a group to be administered with 4-hydroxyderricin at 200 mg/kg once a day for consecutive days. 4-Hydroxyderricin and xanthoangelol which were each suspended or dissolved in an olive oil to 4% (w/v) were mixed in equal volumes, and the mixture was forcibly orally administered to a group to be administered with a combined use of 4-hydroxyderricin and xanthoangelol once a day for consecutive days so that each administration concentration became 100 mg/kg. An olive oil was administered to the mice in the control group at 5 mL/kg in the same manner. The mice were fasted over one night spanning from the fifteenth day to the sixteenth day from administration, and a glucose tolerance test was carried out. Four hours after the administration of the sample, a 10% glucose solution was intraperitoneally administered at 1 g/kg. Thirty minutes before glucose tolerance and 30 minutes after the tolerance, blood was collected from veins of the tail, and the blood glucose level was determined with a simple blood glucose meter, ACCU-CHEK Compact (Roche Diagnostic K.K.).
# [2] = system: insulin-resistant mature adipocytes; experiment: Enhancing action on glucose uptake into insulin-resistant (TNF-α treated) mature adipocytes; format: cell-based; conditions: 4-hydroxyderricin 30 μM; mature adipocytes treated with mouse-derived TNF-α 10 or 20 ng/mL
# Experimental: It is said that tumor necrosis factor a (TNF-α) is deeply involved in insulin resistance, and it has been known that a signal from an insulin receptor is inhibited by treating mature adipocytes with TNF-α, so that a reaction of glucose uptake is inhibited by insulin stimulation (Proc. Natl. Acad. Sci. USA, vol. 91, p 4854-4858 (1994)). The enhancing action by 4-hydroxyderricin on glucose uptake into mature adipocytes in which insulin resistance was induced by TNF-α was evaluated.
# The induction of differentiation into mature adipocytes was carried out in the same manner as in the method described in Example 83, except that after preparation of the mature adipocytes, in order to induce insulin resistance in these mature adipocytes, mouse-derived TNF-α (manufactured by Cosmobio, 3410) was added to the medium so as to have a final concentration of 10 ng/mL or 20 ng/mL, and the adipocytes were cultured for additional 2 days. […]
# The enhancing action on glucose uptake was evaluated in the same manner as in the method described in Example 83. For each of the cells prepared in item (1) of Example 95 mentioned above, there were set a group containing 4-hydroxyderricin at a final concentration of 30 μM, a group without addition of the sample as a negative control, and a group with treatment with insulin, and the radioactivity of each group was determined. […]
# [3] = system: type II diabetes model mice; experiment: Amelioration effects on diabetes of xanthoangelol (blood glucose level, serum insulin); format: in vivo; conditions: female KK-Ay mice
# Experimental: Pathological amelioration effects of xanthoangelol were examined using type II diabetes model mice. Experiments were carried out with five female 12-week old KK-Ay mice (CLEA Japan, Inc.) per group. Xanthoangelol was suspended or dissolved in an olive oil so as to have a concentration of 4% (w/v), and the suspension or solution was forcibly orally administered to the mice once a day at 200 mg/kg for consecutive days. The olive oil was administered to mice in the control group at 5 mL/kg in the same manner. On the day before the beginning of administration, on the fourth day and on the twenty-second day, the blood glucose level was determined in the same manner as in Example 88. In addition, on the twenty-second day, blood was simultaneously collected from abdominal cava, and the insulin concentration in serum was determined with Lebis Insulin Kit (Shibayagi Co., Ltd.). […] During the experimental period, no changes were found in body weight and general symptoms.
# [4] = 200 mg/kg oral once a day in olive oil, mean ± standard error
Structure (SMILES),amelioration effects for glucose tolerance (in words) ([1]; 4-hydroxyderricin 200 mg/kg alone or combined use 100 mg/kg each),"Blood Glucose Level, Before Glucose Tolerance ([1]; 200 mg/kg oral once a day, sixteenth day, fasted, 30 minutes before glucose 1 g/kg i.p.) [mg/dL]","Blood Glucose Level, 30 Minutes After Tolerance ([1]; 200 mg/kg oral once a day, sixteenth day, fasted, glucose 1 g/kg i.p.) [mg/dL]","enhancing action on glucose uptake, increase without TNF-α defined as 100% [2]",action of ameliorating insulin resistance ([3]; 200 mg/kg oral once a day),blood glucose level and insulin concentration (in words) ([3]; 200 mg/kg oral once a day),"Blood Glucose Level, Fourth Day [3, 4] [mg/dL]","Blood Glucose Level, Twenty-second Day [3, 4] [mg/dL]","changes in body weight and general symptoms ([3]; 200 mg/kg oral once a day, experimental period)","Blood Glucose Level, Previous Day ([3]; day before beginning of administration, 200 mg/kg oral once a day in olive oil, mean ± standard error) [mg/dL]","Insulin (concentration in serum) ([3]; twenty-second day, 200 mg/kg oral once a day in olive oil, mean ± standard error) [ng/mL]"
"COc1ccc(C(=O)/C=C/c2ccc(O)cc2)c(O)c1CC=C(C)C [4-Hydroxyderricin, 4,2′-Dihydroxy-3′-prenyl-4′-methoxychalcone]",amelioration effects for glucose tolerance were found,93 ± 2,224 ± 11,around 80%,,,,,,,
"CC(C)=CCC/C(C)=C/Cc1c(O)ccc(C(=O)/C=C/c2ccc(O)cc2)c1O [Xanthoangelol, 4,2′,4′-Trihydroxy-3′-geranylchalcone]",,,,,action of ameliorating insulin resistance was found,lowered,192 ± 16,209 ± 8,no changes,249 ± 13,31 ± 7
